From ChEMBL document CHEMBL1201862, “PubChem BioAssay data set” (2004)
Active and inactive are the calls of the source.

Experiments:
[1] = viability of HCT116 lacking mutant beta-catenin – cell-based, human colon tumor, dose response (AID 1045); assay type: functional;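 note: HCT116 colon tumor cells with beta catenin knocked out; cells exposed to compound for 60 hours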
[2] = viability of PTEN-deleted HCT116 cells – cell-based, HCT116 PTEN knockout, dose response (AID 1047); assay type: functional;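 note: HCT116 colon tumor cells with PTEN knocked out; cells exposed to compound for 60 hours before readout; potency for loss of cell viability measured by luminescence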
[3] = target: T1, RNA-binding protein pos-1 (Caenorhabditis elegans, UniProt G5EF15); assay: disruptors of C. elegans POS-1 RNA interaction – biochemical, fluorescence polarization, dose response (AID 1964);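 note: purified POS-1 fused to maltose binding protein made in E. coli; potency of compounds blocking POS-1 binding to fluorescent RNA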
T1 sequence (G5EF15 whole entry): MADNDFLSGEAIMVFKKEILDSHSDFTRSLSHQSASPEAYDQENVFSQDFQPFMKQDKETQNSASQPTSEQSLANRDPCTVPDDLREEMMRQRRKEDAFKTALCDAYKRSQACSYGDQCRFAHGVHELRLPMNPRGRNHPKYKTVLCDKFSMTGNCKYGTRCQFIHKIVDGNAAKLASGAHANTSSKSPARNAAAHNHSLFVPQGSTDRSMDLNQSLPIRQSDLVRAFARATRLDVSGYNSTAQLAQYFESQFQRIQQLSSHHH

[4] = A cytotoxicity screen of small molecule inhibitors of the PhoP region in Salmonella typhi identified in the primary screen. [Related pubchem assays: 1850, 1864, 1985 ]; assay type: functional
[5] = cells; assay type: functional, cell-based
[6] = cells; assay type: functional, cell-based; remark: listed apart in the source
[7] = target: T2, DNA repair and recombination protein RAD54-like (Homo sapiens, UniProt Q92698); assay: RAD54 Holliday junction migration blockers – biochemical, fluorescence, cherry-picked samples, dose series, confirmation (AID 651657); assay type: functional
T2 sequence (Q92698 whole entry): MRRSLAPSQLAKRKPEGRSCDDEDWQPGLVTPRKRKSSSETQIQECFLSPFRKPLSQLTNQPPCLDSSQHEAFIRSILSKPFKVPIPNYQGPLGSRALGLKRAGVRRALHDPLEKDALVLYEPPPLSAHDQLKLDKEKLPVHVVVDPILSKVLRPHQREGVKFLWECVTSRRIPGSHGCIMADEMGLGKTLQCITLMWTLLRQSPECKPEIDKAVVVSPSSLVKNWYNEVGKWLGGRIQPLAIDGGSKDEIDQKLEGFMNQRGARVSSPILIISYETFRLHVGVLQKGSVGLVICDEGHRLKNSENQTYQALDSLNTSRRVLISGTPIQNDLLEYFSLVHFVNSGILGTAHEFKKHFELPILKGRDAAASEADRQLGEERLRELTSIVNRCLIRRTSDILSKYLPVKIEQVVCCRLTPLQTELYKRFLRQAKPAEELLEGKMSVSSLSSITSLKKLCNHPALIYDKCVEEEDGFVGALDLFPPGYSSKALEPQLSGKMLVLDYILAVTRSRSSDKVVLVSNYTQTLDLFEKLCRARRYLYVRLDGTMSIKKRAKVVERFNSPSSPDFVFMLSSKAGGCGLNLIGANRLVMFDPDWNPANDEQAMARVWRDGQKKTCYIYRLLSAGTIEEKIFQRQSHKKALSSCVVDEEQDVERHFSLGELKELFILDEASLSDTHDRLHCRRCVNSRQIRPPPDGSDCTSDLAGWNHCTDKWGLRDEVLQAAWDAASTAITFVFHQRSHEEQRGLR

[8] = Luminescence Cell-Based Dose Response HTS to Identify Inhibitors of 5'UTR Stem-Loop Driven Prion Protein mRNA Translation in H4 Neuroglioblastoma Cells. [Related pubchem assays: 1827 (Project Summary), 1813 (Primary HTS)]; assay type: functional
[9] = cells
[10] = tested on: Streptococcus sp. 'group A'; assay: Streptococcus pyogenes SK(-)GAS viability under kanamycin – luminescence, BacTiterGlo, confirmation, counter-screen for streptokinase expression inhibitor project, dose response (AID 1900); assay type: functional, organism-based
[11] = target: T3, Streptokinase A (Streptococcus pyogenes serotype M1, UniProt P10520); assay: viability-normalized secreted streptokinase activity reduction – plasminogen activation absorbance, OD405, dose response (AID 1914); assay type: functional, Streptococcus pyogenes M1 GAS;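 note: secreted streptokinase activity via plasminogen activation per viability signal from cell pellet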
T3 sequence (P10520 whole entry): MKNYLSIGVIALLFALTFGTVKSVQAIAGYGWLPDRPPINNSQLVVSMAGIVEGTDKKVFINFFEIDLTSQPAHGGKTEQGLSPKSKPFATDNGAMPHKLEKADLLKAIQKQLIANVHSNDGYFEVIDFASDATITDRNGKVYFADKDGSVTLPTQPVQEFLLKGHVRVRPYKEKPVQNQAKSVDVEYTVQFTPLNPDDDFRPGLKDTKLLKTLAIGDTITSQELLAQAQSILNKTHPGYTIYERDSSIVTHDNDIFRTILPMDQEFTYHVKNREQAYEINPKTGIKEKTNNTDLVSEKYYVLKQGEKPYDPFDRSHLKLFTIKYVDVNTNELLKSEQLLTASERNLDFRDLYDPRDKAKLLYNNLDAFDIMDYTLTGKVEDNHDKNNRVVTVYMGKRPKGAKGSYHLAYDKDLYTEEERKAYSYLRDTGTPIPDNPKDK

[12] = luciferase reporter signal suppression in cells – H4 neuroglioma cells, luminescence, dose response (AID 1990); assay type: functional, cell-based
[13] = viability of uninfected HEp-2 cells – cell-based, HTS, cytotoxicity control for RSV inhibitor project, dose response (AID 2410); assay type: functional; settings: human respiratory syncytial virus
[14] = tested on: Streptococcus; assay: GAS UMAA2166 growth inhibition – luminescence, BacTiterGlo, counter-screen for streptokinase expression inhibitor project, dose response (AID 1915); assay type: functional, organism-based;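 note: potency for reduction of bacterial viability or growth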
[15] = target: T4, Protein skinhead-1 (Caenorhabditis elegans, UniProt P34707); assay type: functional
T4 sequence (P34707 whole entry): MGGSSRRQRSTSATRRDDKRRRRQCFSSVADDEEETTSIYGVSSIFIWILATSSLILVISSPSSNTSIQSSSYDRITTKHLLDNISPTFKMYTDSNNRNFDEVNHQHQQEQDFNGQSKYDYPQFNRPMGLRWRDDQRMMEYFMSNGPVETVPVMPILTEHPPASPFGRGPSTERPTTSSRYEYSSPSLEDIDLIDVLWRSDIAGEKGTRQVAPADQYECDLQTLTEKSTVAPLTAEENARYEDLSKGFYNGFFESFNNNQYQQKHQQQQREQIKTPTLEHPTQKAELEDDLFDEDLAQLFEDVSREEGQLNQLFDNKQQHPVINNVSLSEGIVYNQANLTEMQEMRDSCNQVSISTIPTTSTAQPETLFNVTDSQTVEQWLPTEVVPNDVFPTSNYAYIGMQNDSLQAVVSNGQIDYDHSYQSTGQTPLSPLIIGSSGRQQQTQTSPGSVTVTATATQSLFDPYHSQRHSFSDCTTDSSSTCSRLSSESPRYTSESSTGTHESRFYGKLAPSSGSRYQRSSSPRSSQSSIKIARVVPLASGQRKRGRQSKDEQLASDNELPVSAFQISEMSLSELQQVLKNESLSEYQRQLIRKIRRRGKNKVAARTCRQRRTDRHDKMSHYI

[16] = target: T5, Heat shock factor protein 1 (Mus musculus, UniProt P38532); assay: enhancement of HSF1-driven luciferase signal – cell-based, NIH3T3, luminescence, dose retest, confirmation (AID 435004); assay type: functional;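 note: stress induced by proteasome inhibitor MG132 added 30 min after compound; luciferase reporter driven by HSF1 response element in NIH3T3 cells; actives raise luminescence as potentiators of the MG132 stress response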
T5 sequence (P38532 whole entry): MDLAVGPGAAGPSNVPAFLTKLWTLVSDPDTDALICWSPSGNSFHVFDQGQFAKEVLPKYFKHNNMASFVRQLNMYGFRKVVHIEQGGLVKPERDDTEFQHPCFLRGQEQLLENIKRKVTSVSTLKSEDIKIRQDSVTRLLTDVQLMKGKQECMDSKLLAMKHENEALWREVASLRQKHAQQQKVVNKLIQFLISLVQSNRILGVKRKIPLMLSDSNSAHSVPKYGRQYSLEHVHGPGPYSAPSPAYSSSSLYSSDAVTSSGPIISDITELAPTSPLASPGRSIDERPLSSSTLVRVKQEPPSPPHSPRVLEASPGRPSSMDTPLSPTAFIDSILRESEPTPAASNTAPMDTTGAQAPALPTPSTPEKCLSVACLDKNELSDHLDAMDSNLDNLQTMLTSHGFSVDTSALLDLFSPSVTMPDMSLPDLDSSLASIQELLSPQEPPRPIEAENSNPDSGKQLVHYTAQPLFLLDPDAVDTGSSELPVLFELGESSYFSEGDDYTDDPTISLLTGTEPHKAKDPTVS

[17] = alpha-synuclein stem-loop luciferase translation blockers – H4 neuroglioma cells, luminescence, confirmation (AID 1988); assay type: functional, cell-based
[18] = THP-1 cell cytotoxicity, dose response, cytotoxicity control for non-replicating M. tuberculosis project (AID 489025); assay type: functional
[19] = tested on: INS1; assay: INS-1E survival protection against cytokine death – cell-based, luminescence, retest, dose response (AID 449756); assay type: functional; settings: Rattus norvegicus;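 note: cell death triggered by IL-1 beta plus TNF-alpha plus IFN-gamma mixture; protective hits raise ATP signal compared with cytokine alone wells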
[20] = blockers of HIV-1 ZM109 envelope-driven cell-cell fusion – HeLa effector, CEM target cells, luciferase, cherry-pick, dose response (AID 652058); assay type: functional, cell-based;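 note: luciferase signal from HIV-1 Env mediated cell-cell fusion of effector and target cells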

## CCCCNC(=O)CCn1c(=O)c2ccccc2n(Cc2ccc(Cl)cc2)c1=O
[1]
  EC50: 19.5 µM (active)
[2]
  EC50: 18 µM (active)

## O=C(NNC(=O)c1cc(Cl)ccc1[N+](=O)[O-])c1csc(N2CCOCC2)n1
[3]
  EC50: > 300 µM (inconclusive)

## COc1ccc(Cn2c(=N)c(C(=O)NCC3CCCO3)cc3c(=O)n4ccccc4nc32)cc1 (centres undefined)
[4]
  EC50: > 50 µM (active)

## Cc1occc1C(=O)NC1CCCCCC1
[5]
  EC50: 73 µM (active)
[6]
  EC50: > 350 µM (not active)

## COC(=O)C1=C(C)N(Cc2ccc(OC)cc2)C(=O)C1
[5]
  EC50: > 350 µM (not active)
[6]
  EC50: > 350 µM (not active)

## Cc1cc(Nc2ccc3c(c2)OCCO3)c2cccc(C)c2n1
[7]
  AC50: 13.9 µM (active)

## CCc1nc(SCC(=O)N2c3ccccc3CC2C)c2c(C)c(C)sc2n1 (centres undefined)
[8]
  EC50: 18 µM (active)
[9]
  IC50: 3.55 µM (active)
[10]
  EC50: 13.8 µM (active)
[11]
  EC50: 57.8 µM (active)
[12]
  EC50: > 120 µM (not active)
[13]
  CC50: 5.39 µM (active)
[14]
  EC50: > 150 µM (not active)

## CN(C)c1ccc(NC(=O)/C=C/c2c(Cl)cccc2Cl)cc1
[9]
  IC50: 10.2 µM (active)
[13]
  CC50: 17.3 µM (active)

## Cc1ccc(S/C=C\C(=O)c2ccccc2)cc1
[15]
  IC50: 32.9 µM (active)
[1]
  EC50: 33.1 µM (active)
[2]
  EC50: 98.5 µM (active)
[16]
  EC50: 8.81 µM (active)

## COc1ccc(S(=O)(=O)N2CCOC2CNC(=O)C(=O)NCc2ccc3c(c2)OCO3)cc1OC (centres undefined)
[5]
  EC50: > 350 µM (not active)
[6]
  EC50: > 350 µM (not active)

## N=C(NOS(=O)(=O)c1ccccc1)c1cccnc1
[4]
  EC50: > 50 µM (active)

## CCOC(=O)c1c(C)[nH]c(C(=O)OCC(=O)Nc2cc(C)c(Cl)cc2OC)c1C
[1]
  EC50: 16.2 µM (active)
[2]
  EC50: 12.8 µM (active)

## COc1ccc(C(=O)CN2CCN(CCN3C(=O)c4cccc5cccc(c45)C3=O)CC2)cc1
[8]
  EC50: > 120 µM (not active)
[17]
  EC50: 15.3 µM (active)
[12]
  EC50: 13.4 µM (active)
[7]
  AC50: 8.03 µM (active)

## O=C(CSc1nnc(-c2ccccc2Cl)o1)N1CCOCC1
[5]
  EC50: > 350 µM (not active)
[6]
  EC50: > 350 µM (not active)

## CCOC(=O)c1cc(-c2ccncc2)nc2c1c(C)nn2-c1ccccn1
[4]
  EC50: > 50 µM (active)
[7]
  AC50: 30.4 µM (active)

## Cc1nc(C)c(-c2ccc(SCc3ccccc3F)nn2)s1
[4]
  EC50: > 50 µM (active)

## Cc1nc2ccccc2c2oc(C(=O)NCCN3CCN(C)CC3)cc12
[7]
  AC50: 39.9 µM (active)

## NC(=O)c1c(NC(=O)CSc2nc(N)cc(O)n2)sc2c1CCCC2
[4]
  EC50: > 50 µM (active)

## COc1cccc(C(=O)SC2=NCCS2)c1
[5]
  EC50: 55.8 µM (active)
[6]
  EC50: > 350 µM (not active)

## CC(=O)Oc1ccc(N(C(C)=O)S(=O)(=O)c2cccs2)c2ccccc12
[18]
  CC50: 26.1 µM (active)
[19]
  AC50: 8.83 µM (active)

## COC(=O)C1=C(C)N(Cc2ccco2)C(=O)N[C@H]1c1cccc(C(F)(F)F)c1
[9]
  IC50: 1.47 µM (active)
[13]
  CC50: 25.6 µM (active)

## CCN(CC)CCN=C(S)Nc1ccc2nc(N3CCN(CC)CC3)cc(C)c2c1
[7]
  AC50: 15.3 µM (active)

## COc1cccc(S(=O)(=O)N[C@@H]2CC[C@H](CCN)O[C@H]2CO)c1
[20]
  AC50: 1.26 µM (active)

## O=C(N/N=C/c1cccnc1)c1ccc([N+](=O)[O-])cc1Cl
[4]
  EC50: > 50 µM (active)

## CCCCN(CC)S(=O)(=O)c1ccc(C(=O)/N=c2\sc3cc(NC(C)=O)ccc3n2C)cc1
[1]
  EC50: 10.2 µM (active)
[2]
  EC50: 17.1 µM (active)

## Cc1cccc(NS(=O)(=O)c2ccc(C)c(C(=O)OCC(=O)Nc3cc(C)on3)c2)c1
[8]
  EC50: > 120 µM (not active)
[17]
  EC50: 28.1 µM (active)
[9]
  IC50: 30.8 µM (active)
[12]
  EC50: 41.1 µM (active)
[13]
  CC50: 23.9 µM (active)
